One series concerns E. aerogenes ATCC13048. As to the kind of experiment: Antibacterial assay (MIC). The note with it: Klebsiella aerogenes. Type of series: cell-based, Enterobacter aerogenes. The protocol: (§1) The minimal inhibitory concentration (MIC) was determined as described previously in cation-adjusted Mueller-Hinton medium according to the standards and guidelines of the Clinical and Laboratory Standards Institute. […] After an overnight incubation at 37 °C, the MIC was read as the lowest compound concentration preventing visible bacterial growth. The strain panel included representative species of nosocomial pathogens, known as “[…]” bacteria. Specifically, the following strains were used: Enterococcus faecium BM 4147-1, Staphylococcus aureus ATCC 29213, Klebsiella pneumoniae ATCC 12657, Acinetobacter baumannii 09987, Pseudomonas aeruginosa ATCC 27853, and Enterobacter aerogenes ATCC 13048. Bacillus subtilis 168, Escherichia coli ATCC 25922, and Mycobacterium smegmatis mc^2 155 ATCC 700084 were used as further reference strains.

Series [1] has as its system T. cruzi Tulahuen strain C2C4. As to the kind of experiment: Activity against T. cruzi in L-6 cells (beta-galactosidase/CPRG). It is filed as cell-based, Trypanosoma cruzi. The following applies: in vitro, Tulahuen C2C4 in L-6 cells, Table 2 values are means of two independent assays. The method, then: Activity against T. cruzi. Rat skeletal myoblasts (L-6 cells) were seeded in 96-well microtiter plates at 2000 cells/well in 100 μL RPMI 1640 medium with 10% FBS and 2 mM L-glutamine. After 24 h, the media in each well was removed and replaced with 100 μL of fresh media containing 5000 trypomastigote forms of T. cruzi Tulahuen strain C2C4 containing the β-galactosidase (lacZ) gene. After 48 h, the media was removed from the wells again, and this time, replaced by 100 μL fresh medium with or without 1 from 100 to 0.002 μg/mL. After 96 h of incubation, the plates were inspected under an inverted microscope to assess growth and sterility of the controls. Then, the substrate CPRG/Nonidet (50 μL) was added to all wells. A color reaction developed within 2–6 h and could be read photometrically at 540 nm.

In series [2] the test system is Litomosoides sigmodontis adult female worms. As to the kind of experiment: Anthelmintic assay, motility of adult filariae cultured in vitro. Type of series: cell-based. The note with it: 0.1, 1 and 10 µM; scale 0 (immotile) to 2 (maximum motility); 2.0 in media controls. The protocol: To investigate the activity against filarial nematodes, adult female worms of the rodent filarial nematode Litomosoides sigmodontis were cultured in vitro with a 0.1, 1 and 10 µM concentration of 1. Motility of adult filariae as well as reduction of Wolbachia endosymbionts were assessed. […] L. sigmodontis adult female worms were isolated from chronically infected cotton rats (UKB). Three L. sigmodontis female adult worms per condition were cultured in supplemented Minimal Essential Medium (MEM) on a LLCMK2 cell layer, as previously described. […] Candidate 1 was tested at concentrations of 0.1, 1 and 10 µM. Filarial viability was assessed by determining the mean worm motility scores on a scale of 0 (immotile) to 2 (maximum motility) before drug addition and at 1 h, 1 day, 2 day, 4 day, 6 day, 8 day, 10 day, 12 day and 14 day post drug addition. The drug-containing media was renewed every other day. Depletion of Wolbachia endosymbionts from female adult worms was analyzed after two weeks of in vitro culture and determined as previously described using primers for the single copy gene Wolbachia ftsZ.

The subject of series [3] is Trypanosoma brucei rhodesiense STIB900. The series can be described thus: Activity against Trypanosoma brucei rhodesiense STIB900 (resazurin). The following applies: Table 2 values are means of two independent assays. (Resazurin is reduced to fluorescent resorufin, in cell work by metabolically active cells.)
Description: Activity against Trypanosoma brucei rhodesiense STIB900. […] Minimum Essential Medium (50 µL) supplemented with 25 mM HEPES, 1 g/L additional glucose, 1% MEM non-essential amino acids (100×), 0.2 mM 2-mercaptoethanol, 1 mM Na-pyruvate and 15% heat inactivated horse serum was added to each well of a 96-well microtiter plate. Serial drug dilutions ranging from 100 to 0.002 μg/mL were prepared. Then, 4 × 10^3 bloodstream forms of T. b. rhodesiense STIB 900 in 50 µL were added to each well and the plate was incubated at 37 °C under a 5% CO2 atmosphere for 70 h. 10 µL of a resazurin solution (resazurin, 12.5 mg in 100 mL double-distilled water) was then added to each well and incubation continued for a further 2–4 h [70]. The plates were read with a Spectramax Gemini XS microplate fluorometer (Molecular Devices Cooperation, Sunnyvale, CA, USA) using an excitation wavelength of 536 nm and an emission wavelength of 588 nm. Data were analyzed using Softmax Pro (Molecular Devices Cooperation, Sunnyvale, CA, USA), which calculated IC50 values by linear regression [71] and 4-parameter logistic regression from the sigmoidal dose inhibition curves.
A short description of series [4]: Observed stability of the isolated compounds. It is filed as physicochemical. The note with it: rapid decomposition after the NMR measurements. An excerpt:
The shift values of the terminal heterocycle were in very good agreement with literature data from similar natural products, bearing a γ-hydroxy-γ-butenolide moiety. Analogous to compound 7, the Δ^8,10 double bond of 8 was defined as E (C-9: δC 16.2 and NOESY cross correlations depicted in Figure 4). Likewise, based on the same observed diagnostic NOE crosspeaks for the indene system (Figure S43B) and for biogenetic reasons, we propose that 8 is 11R*, 15R*, 18S*, 20R*, 21S* configured. […] Therefore, we integrated computational methods and aimed for quantum-mechanical predictions of ^1H and ^13C NMR chemical shifts of a 1S- and a 1R-configured version of 8.
All tests were performed with 1 as a pre-screening for the scaffold’s activity within their respective assays. Based on the results from the pre-screening, the biological evaluation of the structural congeners was planned. Unfortunately, an instability phenomenon affected the purity of the isolated compounds. Due to the limited amounts of the isolated compounds, repurification would not have yielded the required sample quantity for the assays. This reality precluded biological evaluation of the structural congeners 3–8.

Series [5] relates to HeLa human cervical carcinoma cell line. The series can be described thus: In vitro cytotoxicity assay with HeLa cells (resazurin). Type of series: cell-based. The method, then:
In vitro cytotoxicity assay with HeLa cells: The cytotoxicity test against the HeLa human cervical carcinoma cell line was performed as described previously in RPMI cell culture medium supplemented with 10% fetal bovine serum using the 7-hydroxy-3H-phenoxazin-3-one-10-oxide (resazurin) assay. Briefly, a 2-fold serial dilution of the test compounds was prepared in duplicates in a microtiter plate and seeded with trypsinized HeLa cells to a final cell concentration of 1 × 10^4 cells per well. After 24 h of incubation at 37 °C, with 5% CO2 and 95% relative humidity, resazurin was added at a final concentration of 200 μM, and cells were again incubated overnight. Cell viability was assessed by determining the reduction of resazurin to the fluorescent resorufin. Fluorescence was measured in a TECAN Infinite M200 reader at an excitation wavelength of 560 nm and an emission wavelength of 600 nm in relation to an untreated control.

The test system of the next series is M. smegmatis mc2 155. As to the kind of experiment: Antibacterial assay (MIC). It is filed as cell-based, Mycobacterium smegmatis. The note with it: Mycolicibacterium smegmatis, MC2155. The protocol: as §1
In the next series the test system is A. baumannii 09987. The series can be described thus: Antibacterial assay (MIC). It is filed as cell-based. The following applies: Acinetobacter baumannii. The protocol: as §1
A further series deals with K. pneumoniae ATCC12657. As to the kind of experiment: Antibacterial assay (MIC). The following applies: Klebsiella pneumoniae. It is filed as cell-based. The protocol:
as §1

A further series deals with P. aeruginosa ATCC27853. The series can be described thus: Antibacterial assay (MIC). The note with it: Pseudomonas aeruginosa. It is filed as cell-based. The protocol:
as §1

The next series deals with B. subtilis 168. The series can be described thus: Antibacterial assay (MIC). Type of series: cell-based. The following applies: Bacillus subtilis. The method, then:
as §1

The next series concerns E. faecium BM4147-1. The series can be described thus: Antibacterial assay (MIC). It is filed as cell-based. The note with it: Enterococcus faecium, BM41471. The method, then: as §1
For the next series, the system named is E. coli ATCC25922. As to the kind of experiment: Antibacterial assay (MIC). Type of series: cell-based. The note with it: Escherichia coli. The method, then: as §1
Another series deals with S. aureus ATCC29213. The series can be described thus: Antibacterial assay (MIC). It is filed as cell-based. The following applies: Staphylococcus aureus. The method, then: as §1
For series [6], the system named is Human Cytomegalovirus (HCMV). Type of series: cell-based. The following applies: up to the highest concentration tested (10 µM), HFF cells.
The test system of series [7] is Severe Acute Respiratory Syndrome Corona Virus type 2 (SARS-CoV-2). Type of series: cell-based. The following applies: up to the highest concentration tested (10 µM), CaCo2 cells.

Usually MIC stands for the least concentration at which growth counts as inhibited. A high value points to a need for much substance. The IC50 is the concentration that inhibits the measured activity by half.

Read-outs that look alike come from different tables or passages of the source. Some results are limits rather than exact numbers.

In the case of `CC1=C[C@@H](/C=C(\C)CCCc2ccoc2)[C@]2(OC(=O)C(C)=C2O)[C@@H]2[C@@H](C)CC[C@@H]12` [compound 1, Ircinianin], the minimal inhibitory concentration (MIC) in the series on E. aerogenes ATCC13048, with M. smegmatis mc2 155, in the series with A. baumannii 09987, in the series with K. pneumoniae ATCC12657, against P. aeruginosa ATCC27853 and in the series on B. subtilis 168 was above 32 µg/mL in each case. The MIC in the series with E. faecium BM4147-1, in the series with E. coli ATCC25922 and against S. aureus ATCC29213 was above 32 µg/mL throughout. Further, the half-inhibitory concentration (IC50) is above 80 µM in [1]; 191 µM in series [1] (listed as Ircinianin (1)); above 80 µM in series [3] (Trypanosoma brucei, RHODESIENSE|STIB900, read-out: IC50 T. brucei rhodesiense, in vitro, STIB900 bloodstream forms); 82.8 µM in series [3] (read-out: IC50 T. brucei rhodesiense, in vitro, STIB900 bloodstream forms, listed as Ircinianin (1)); above 64 µg/mL in series [5]. The motility score in series [2] is given as 1.7–1.8. Besides, the “Stability of isolated compound” value in series [4] was “unstable”. In addition, the “Inhibition of HCMV infection” value in series [6] is recorded as “no inhibition”. In addition, the “Inhibition of SARS-CoV-2 infection” value in [7] is “no inhibition”.

The values above are taken from PMC9410537, “Discovery of Ircinianin Lactones B and C—Two New Cyclic Sesterterpenes from the Marine Sponge Ircinia wistarii” (Marine Drugs, 2022).
